Measurements as given in US20210106567A1, “COMPOSITIONS AND METHODS FOR INHIBITING CARP-1 BINDING TO NEMO” (United States Government As Represented By The Department …, priority 2019, published 2021).

What was measured:
[1] = target: T1, NEMO interaction with CARP-1 (Homo sapiens, UniProt Q8IX12); test: IP-WB in Gst-NEMO expressing HBC cells, CARP-1; assay type: cell-based; details: alone or in combination with Adriamycin
T1 construct: expressed in transfected cells; host or cells: HBC cells stably expressing Gst-NEMO
T1 sequence (Q8IX12 whole entry): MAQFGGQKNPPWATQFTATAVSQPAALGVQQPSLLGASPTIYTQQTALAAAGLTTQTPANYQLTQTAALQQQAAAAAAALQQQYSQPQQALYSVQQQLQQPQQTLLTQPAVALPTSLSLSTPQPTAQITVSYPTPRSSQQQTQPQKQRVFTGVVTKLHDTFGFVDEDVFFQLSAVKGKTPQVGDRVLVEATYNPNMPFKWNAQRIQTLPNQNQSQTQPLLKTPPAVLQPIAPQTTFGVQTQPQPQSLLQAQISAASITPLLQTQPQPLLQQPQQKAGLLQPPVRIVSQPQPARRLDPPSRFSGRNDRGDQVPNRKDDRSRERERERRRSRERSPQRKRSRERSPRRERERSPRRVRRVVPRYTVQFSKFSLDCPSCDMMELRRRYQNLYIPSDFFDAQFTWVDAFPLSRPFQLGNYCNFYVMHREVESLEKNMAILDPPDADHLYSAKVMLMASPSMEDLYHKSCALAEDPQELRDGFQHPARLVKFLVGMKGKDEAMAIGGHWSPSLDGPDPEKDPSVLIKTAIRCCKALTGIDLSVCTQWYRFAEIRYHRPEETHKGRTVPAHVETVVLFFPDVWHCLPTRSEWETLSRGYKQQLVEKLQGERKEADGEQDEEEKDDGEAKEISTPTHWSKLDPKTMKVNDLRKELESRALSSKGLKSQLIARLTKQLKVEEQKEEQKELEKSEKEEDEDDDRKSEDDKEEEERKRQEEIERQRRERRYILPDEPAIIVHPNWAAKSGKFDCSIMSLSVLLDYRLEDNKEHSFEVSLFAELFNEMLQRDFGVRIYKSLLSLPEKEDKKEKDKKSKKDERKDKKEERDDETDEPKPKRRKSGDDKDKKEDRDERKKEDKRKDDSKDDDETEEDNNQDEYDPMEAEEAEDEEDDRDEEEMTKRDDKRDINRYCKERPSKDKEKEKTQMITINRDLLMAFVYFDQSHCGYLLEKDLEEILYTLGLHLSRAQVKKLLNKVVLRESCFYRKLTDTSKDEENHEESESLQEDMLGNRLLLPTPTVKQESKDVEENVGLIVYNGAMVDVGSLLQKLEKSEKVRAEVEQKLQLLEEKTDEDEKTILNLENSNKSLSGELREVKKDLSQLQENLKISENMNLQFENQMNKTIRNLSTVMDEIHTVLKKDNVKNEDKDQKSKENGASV
Experimental: (§1) The biochemical mechanism of inhibition of CARP-1 (551-580; SEQ ID NO: 6) binding with NEMO (221-261; SEQ ID NO: 2) by SNI-1 was assessed. E. coli expressed Gst-NEMO (221-261; SEQ ID NO: 2) and His-TAT-HA-CARP-1 (551-580; SEQ ID NO: 6) peptides in IP-WB assays were used. […] Since Adriamycin activates ATM to regulate canonical NF-κB and DSB repair pathways, it remains to be clarified whether CARP-1 regulates RIPK1 signaling dependent and/or independent of ATM.
(§2) The cells were lysed to prepare protein extracts.

[2] = target: T2, NEMO interaction with RIPK1 (Homo sapiens, UniProt Q13546+Q9Y6K9); test: IP-WB in Gst-NEMO expressing HBC cells, RIPK1; assay type: cell-based; details: alone or in combination with Adriamycin
T2 construct: expressed in transfected cells; host or cells: HBC cells stably expressing Gst-NEMO
T2 sequence (Q9Y6K9 whole entry): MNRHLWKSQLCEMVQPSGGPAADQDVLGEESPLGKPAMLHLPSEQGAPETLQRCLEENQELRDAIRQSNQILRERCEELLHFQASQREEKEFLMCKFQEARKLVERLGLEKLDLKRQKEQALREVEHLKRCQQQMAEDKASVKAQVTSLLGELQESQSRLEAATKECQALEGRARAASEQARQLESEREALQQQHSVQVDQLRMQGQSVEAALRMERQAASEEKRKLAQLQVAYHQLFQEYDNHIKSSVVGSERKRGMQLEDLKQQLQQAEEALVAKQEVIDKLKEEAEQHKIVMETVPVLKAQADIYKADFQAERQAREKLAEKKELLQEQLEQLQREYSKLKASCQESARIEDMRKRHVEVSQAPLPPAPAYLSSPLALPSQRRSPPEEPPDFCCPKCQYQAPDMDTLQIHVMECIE
T2 sequence (Q13546 whole entry): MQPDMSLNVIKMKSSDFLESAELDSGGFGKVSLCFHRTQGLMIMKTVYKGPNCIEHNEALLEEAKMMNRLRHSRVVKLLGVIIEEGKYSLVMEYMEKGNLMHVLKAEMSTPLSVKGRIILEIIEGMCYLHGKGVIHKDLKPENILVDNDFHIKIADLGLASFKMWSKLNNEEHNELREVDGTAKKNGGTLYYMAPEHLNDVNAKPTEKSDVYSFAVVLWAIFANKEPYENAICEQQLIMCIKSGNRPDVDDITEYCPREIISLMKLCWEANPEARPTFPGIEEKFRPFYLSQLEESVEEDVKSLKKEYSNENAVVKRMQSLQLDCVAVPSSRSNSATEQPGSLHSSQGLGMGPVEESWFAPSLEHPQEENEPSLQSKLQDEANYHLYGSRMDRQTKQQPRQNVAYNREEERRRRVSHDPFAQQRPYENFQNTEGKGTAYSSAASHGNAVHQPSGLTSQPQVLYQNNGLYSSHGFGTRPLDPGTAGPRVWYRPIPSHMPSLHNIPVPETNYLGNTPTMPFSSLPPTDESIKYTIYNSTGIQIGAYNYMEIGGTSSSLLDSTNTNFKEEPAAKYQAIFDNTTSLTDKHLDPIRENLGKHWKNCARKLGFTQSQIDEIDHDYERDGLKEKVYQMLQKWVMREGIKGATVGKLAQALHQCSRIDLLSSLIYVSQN
Experimental: as §1, §2

[3] = MTT cell viability; assay type: cell-based, human; details: human, MDA-MB-231 TNBC cells; 1.0, 2.5, 5.0, or 10.0 μM over 24 h; read-out: loss of viability
Experimental: (§3) The murine TNBC cell line 4T1 that was derived from a spontaneously arising BALB/c mammary tumor were obtained from the Karmanos Cancer Institute (KCl), and were maintained in culture (Cheriyan et al. (2016) Oncotarget 7, 73370-73388). […] The cell culture media were also supplemented with 10% FBS, 100 units/ml of penicillin, and 100 μg/ml of streptomycin, and the cells were maintained at 37° C. and 5% CO2. For cell growth and MTT studies, the cells were cultured in fresh media with 5%-10% FBS prior to their treatments with various agents.
(§4) Cell Viability, Immunoprecipitation and Western Blot assays: 500-1000 cells were seeded in each well of 96 well plate and then either untreated (control) or treated with various agents for noted times. After treatment, MTT reagent was added at 0.5 mg/ml concentration for 2-4 hours at 37° C. DMSO was added to solubilize formazan and the plate was read at 570 nm in a plate reader. The histograms indicating levels of cell viability were generated by plotting the net absorbances (Rishi et al. (2003) J Biol Chem 278, 33422-33435; and Rishi et al. (2006) J Biol Chem 281, 13188-13198).

[4] = tested on: MDA-MB-231 TNBC cells; test: MTT cell viability; assay type: cell-based, human; details: Homo sapiens, MDA-MB-231, 72 h
Experimental: as §3, §4

[5] = tested on: diffuse large B cell lymphoma cells; test: Cell viability, lymphoma; assay type: cell-based; details: Homo sapiens, read-out: IC50, reduced viabilities
[6] = tested on: follicular cell lymphoma cells; test: Cell viability, lymphoma; assay type: cell-based; details: Homo sapiens; read-out: IC50, reduced viabilities
[7] = tested on: mammospheres derived from human TNBC PDX tumors; test: Three-dimensional mammosphere assay (MTT); assay type: cell-based; details: SNI-1 2.5 or 5.0 μM, Adriamycin 5 μM, 48 h
Experimental: Three-dimensional Mammosphere Assays: The PDX tumor cells were dissociated from the tumor fragments, and cultured for 2-dimensional and mammosphere studies in vitro (Cheriyan et al. (2016) Oncotarget 7, 73370-73388). Briefly, the cells were washed twice in 1×PBS, trypsinized, and pelleted at 200×g at room temperature. Cells were then re-suspended in 5 ml of mammosphere media (DMEM/F12 containing 2 mM L-glutamine, 100 U/ml penicillin, 100 U/ml streptomycin, 1×B27 supplement, 20 ng/ml recombinant human epidermal growth factor (EGF; Sigma), 10 ng/ml recombinant human basic fibroblast growth factor (bFGF; R&D Systems). Approximately 5000 viable cells per ml was then seeded in an ultra-low adherent 60 mm plate and incubated at 37° C. and 5% CO2 for two weeks without disturbing the plates. After the mammospheres formed, fresh media with or without Adriamycin (5 μM), SNI-1 (2.5 or 5.0 μM), or a combination of these agents was added and the cells incubated for additional 48 h at 37° C. and 5% CO2. The mammospheres in the untreated and treated plates were photographed, and the cells were then dissociated to determine their viabilities by the MTT assay (Cheriyan et al. (2016) Oncotarget 7, 73370-73388).

[8] = MTT cell viability; assay type: cell-based; details: human, wild-type HeLa cells; read-out: reduction in the viabilities
[9] = tested on: HeLa CARP-1 ko cells; test: MTT cell viability; assay type: cell-based, human
[10] = tested on: HeLa NEMO ko cells; test: MTT cell viability; assay type: cell-based, human
[11] = tested on: CARP-1 levels, cleavage of PARP or caspase-3; test: Western blot for apoptosis markers; assay type: cell-based
From the text: as §2

[12] = tested on: p65/RelA activation and phosphorylation of NEMO; test: Western blot for canonical NF-κB activation; assay type: cell-based; details: in presence of SNI-1
From the text: as §2

[13] = tested on: human TNBC cells; test: Cytokine ELISA of culture media; assay type: cell-based; details: versus untreated cells
[14] = tested on: 4T1 TNBC tumors; test: 4T1 TNBC syngeneic tumor efficacy study in Balb/c mice; assay type: in vivo, mouse
Experimental: Establishment of TNBC cell-derived xenografts in Syngeneic mice: Generation of 4T1 TNBC cell-derived sub-cutaneous xenografts in Balb/c mice were performed (Cheriyan et al. (2016) Oncotarget 7, 73370-73388; and Cheriyan et al. (2017) Oncotarget 8, 104928-104945). BALB/cAnNCr, 6-8-weeks old, female mice were purchased from Charles River Laboratories (Horsham, Pa.). Following suitable acclimation of animals, 1×10^6 4T1 TNBC cells were re-suspended in 200 μl of sterile saline, and implanted in the flanks using a 27-gauge needle. Tumors were allowed to grow to 500-1000 mg (˜10 days), and the aseptically harvested, minced into 3-4 mm^3 (30 mg) fragments and transplanted SC into naïve recipient mice using a standard 12 gauge trocar to serially maintain the tumor in vivo. For efficacy studies, tumors serially maintained in vivo were aseptically harvested and minced into 3-4 mm^3 (30 mg) fragments, then bilaterally transplanted subcutaneously along the flanks using a standard 12 gauge trocar. […] For the efficacy studies, SNI-1 was formulated in 8% DMSO (v/v) and 8% Cremophor (v/v) in cell grade water, pH4 as diluent.
Clinical grade ADR stock (2 mg/mL) was diluted to the appropriate concentration with cell grade water; pH4 and clinical grade CIS (1 mg/ml) diluted with USP 0.9% saline; pH6). Mice were monitored daily for changes in condition and body weight. Tumors were measured three times weekly by caliper and tumor volume (mg) was calculated using the following formula: (A×B2)/2 where A and B are the tumor length and width (in mm), respectively. […] Efficacy was also assessed quantitatively using tumor growth delay (T−C) defined as the difference between the median time (in days) required for the treatment group tumors (T) to reach 1000 mg and the median time (days) for the control group tumors to reach the same volume. Post last treatment, tumor tissue and samples from various organs (spleen, liver, kidney, heart, bone, and lungs) were collected. Additionally, the whole blood samples were obtained from a representative tumor-bearing mouse from each group via terminal cardiac puncture. Immuno-histochemical analyses of the tumor and tissue samples were performed for expression of activated RelA (serine 536 phosphorylated p65), total RelA, cleaved caspase-3, and CARP-1 proteins. The levels of pro-inflammatory cytokines in the sera were analyzed by sandwich ELISA assays following methods detailed herein (Cheriyan et al. (2016) Oncotarget 7, 73370-73388; and Cheriyan et al. (2017) Oncotarget 8, 104928-104945).

[15] = Dose-route determination in non-tumor-bearing mice; assay type: in vivo, mouse; details: 5% DMSO, 5% ethanol, 2% Tween 80 formulation
[16] = tested on: SUM149 cell-derived xenografts; test: SUM149 BRCA1-mutant TNBC xenografts in NCr-SCID mice; assay type: in vivo; details: 70 mg/kg daily×13, i.p. (parent) or i.v. (sodium salt)
From the text: BRCA1 mutant TNBC Tumor Model: Testing for germline BRCA1/2 mutations permits identification of BRCA1/2 status as clinically relevant in the selection of therapy for patients already diagnosed with breast cancer. BRCA status predicts responsiveness to platinum-based chemotherapy, as well as to inhibitors of poly(ADP-ribose) polymerase (PARP) in breast and ovarian cancers. […] A related objective of this pilot study was to determine whether and to the extent SNI-1 or its water soluble, di-sodium derivative will elicit effects in vivo.

[17] = tested on: RENCA renal cancer tumors; details: mouse, in vivo
Experimental: The subcutaneous tumor bearing mice were treated with indicated agents. […] The end-points for assessing anti-tumor activity involved qualitative determination via tumor growth inhibition (% T/C) where T is the median tumor volume of the treated mice and C is the median tumor volume of the Control mice on any given day of measurement.

In the case of `Cc1ccc(-n2nnnc2SCC(=O)c2ccc(O)c(O)c2)cc1` [SNI-1, 1-(3,4-dihydroxyphenyl)-2-{(1-(4-methylphenyl)-1H-tetrazol-5-yl)thio}ethanone], the “NEMO interaction with CARP-1 (IP-WB)” value [1] is reported as “abrogated NEMO interaction with CARP-1”, the “NEMO interaction with RIPK1 (IP-WB)” value [2] is reported as “not with RIPK1” and the cytotoxicity at 24 h [3] is reported as 10 to 20%. For the same compound, the IC50 [4] was 4 to 4.5 µM, the IC50 [5] was ~10 µM and the IC50 [6] was ~7.5 µM. The “growth/viability of mammospheres” value [7] was “failed to inhibit growth of mammospheres”, the cytotoxicity [8] was ~30% and the loss of viabilities [9] was “failed to provoke any loss of viabilities”. For the same compound, the “loss of viabilities versus similarly treated wild-type HeLa cells” value [10] was “further significant loss of viabilities”, the “apoptosis (elevated CARP-1 levels, cleavage of PARP or caspase-3)” value [11] was “stimulation of apoptosis” and the “p65 activation and NEMO phosphorylation by Adriamycin or Cisplatin” value [12] was “diminished p65 activation and NEMO phosphorylation”. The “levels of TNFα and IL-8 in culture media” value [13] was “modest increase”, the “inhibition of tumor growth” value ([14]; 70 mg/kg/dose i.p. QD 1-13) was “absent to minimal inhibition of tumor growth” and the “toxicities in the animals” value ([14]; 70 mg/kg/dose i.p. QD 1-13) was “did not provoke toxicities”. The “activated caspase-3 in normal tissues (immuno-histochemistry)” value ([14]; mouse, in vivo) was “failed to show presence of activated caspase-3”, the “hematoxylin and eosin staining of lungs, spleen, heart, liver, kidneys, and bone marrow” value ([14]; mouse, in vivo) was “did not indicate microscopic alterations” and the “cleaved caspase-3 in tumors (immuno-histochemistry)” value ([14]; versus untreated control animal) was “strong presence of cleaved caspase-3”. The “suitability for chronic intravenous administration” value [15] was “not suitable for chronic intravenous administration”, the tolerability [16] was “well tolerated” and the “weight loss in animals” value [17] was 0.4-4.0%.
